# Source: patent publication EP0429304A2, “Pyridone-carboxylic acid derivatives and their use as veterinary medicines” (SHIONOGI SEIYAKU KABUSHIKI KAISHA trading under the name of …, priority 1989, dated 1991)
# Like-named read-outs stand apart in the source and are kept apart here.
# Assays:
# [1] = test system: Mycoplasma gallisepticum (MG) S6; assay: In vitro sensitivity test (liquid dilution method); type: cell-based; settings: 37°C, 7 days
# [2] = test system: Mycoplasma gallisepticum (MG) T-7-T, TS-resistant strain isolated from the field; assay: In vitro sensitivity test (liquid dilution method); type: cell-based; settings: 37°C, 7 days
# [3] = test system: Mycoplasma hyopneumoniae (Mh) ST-11; assay: In vitro sensitivity test (liquid dilution method); type: cell-based; settings: 37°C, 7 days
# [4] = test system: Mycoplasma synoviae (MS) 1853; assay: In vitro sensitivity test (liquid dilution method); type: cell-based; settings: 37°C, 7 days
# Outline: (§1)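 Read-out is visual growth after incubation. Conditions were 37°C for 7 days in Frey medium (12 % pig-serum, 0.01 % βNAD; liquid dilution) for MS, and 37°C for 20 to 24 hours on Mueller Hinton agar for S.au. P.pis used 25°C, 40 to 48 hours, on 1.5 % NaCl heart infusion agar.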
# [5] = test system: Mycoplasma synoviae (MS) F10-2as; assay: In vitro sensitivity test (liquid dilution method); type: cell-based; settings: 37°C, 7 days
# Outline: as §1
# [6] = test system: Bordetella bronchiseptica (B.br) ABU-1; assay: In vitro sensitivity test (agar dilution method); type: cell-based; settings: 37°C, 20 to 24 hours
# [7] = test system: Escherichia coli (E.coli) E-17, chicken-origin strain isolated from the field; assay: In vitro sensitivity test (agar dilution method); type: cell-based; settings: 37°C, 20 to 24 hours
# Outline: (§2)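 MS (liquid dilution): Frey medium + 12 % pig-serum + 0.01 % βNAD, 37°C, 7 days. S.au (agar dilution): Mueller Hinton agar, 37°C, 20 to 24 hours. P.pis: heart infusion agar + 1.5 % NaCl, 25°C, 40 to 48 hours. All strains animal-origin.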
# [8] = test system: Escherichia coli (E.coli) JC-2; assay: In vitro sensitivity test (agar dilution method); type: cell-based; settings: 37°C, 20 to 24 hours
# [9] = test system: Hemophilus paragallinarum (H.pg) 221; assay: In vitro sensitivity test (agar dilution method); type: cell-based; settings: agar dilution, 37°C, 20 hours, 10 % CO₂
# [10] = test system: Hemophilus paragallinarum (H.pg) S-1; assay: In vitro sensitivity test (agar dilution method); type: cell-based; settings: agar dilution, 37°C, 20 hours, 10 % CO₂
# [11] = test system: Hemophilus pleuropneumonia (H.pp) M-1; assay: In vitro sensitivity test (agar dilution method); type: cell-based; settings: 37°C, 20 hours, 10 % CO₂
# [12] = test system: Staphylococcus aureus (S.au) 209P; assay: In vitro sensitivity test (agar dilution method); type: cell-based; settings: 37°C, 20 to 24 hours
# Outline: as §2
# [13] = test system: TS-resistant strain of MG; type: in vivo, chicken; settings: for Number of infected fowl/Number of fowl tested: 3.5 x 10³ CFU/fowl
# TS-resistant MG [14] = assay: Experimental MG infection to chicken, through bait; type: in vivo; settings: 9-days chicken; for Number of fowl having air sack lesions: 1.8 x 10³ CFU/fowl; for Number of infected fowl/Number of fowl tested: 6.6 x 10³ CFU/fowl, dissection 6th day after inoculation
# H.pg strain (i.e. 221) = assay: Experimental H.pg infection to chicken, through bait; type: in vivo; settings: 28-days chicken infected with 4 x 10⁸ CFU/fowl, dissection, 10th day after inoculation
# Text: (§3) In these experiments, the compound (I) was applied to the designated animals by (1) oral administration, (2) incorporation into baits and (3) intramuscular injection, the details of which are explained below.
# TS-resistant MG [15] = assay: Experimental MG infection to chicken, through injection; type: in vivo; settings: 5 fowl tested, 10-days chicken, 3.1 x 10³ CFU/fowl
# [16] = test system: H.pp (otherwise called Actinobacillus pleuropneumoniae) strain M-1; assay: Experimental H.pp infection to pig, through injection; type: in vivo; settings: injection to thigh muscle one time, dissection 6 days after inoculation
# Method: as §3
# (3) Preparation of the MG infected fowls was performed in the same manner as in (1) above. Infection of H.pp (otherwise called Actinobacillus pleuropneumoniae) to cause pleuropneumonia in pig was performed by inoculating 5 ml of a fresh cultured strain (i.e. M-1) of H.pp to each nasopharyngeal of some 45 days pigs, each weighing 4 to 9 kg (4 to 5 pigs/group), followed by injection of the test compounds to each thigh muscle at a designated volume one time. Pigs were dissected 6 days after the inoculation. The evaluation of the antimicrobial activity was made by observation of the pneumonia symptomes in air sacs, number of dead body and degree of nodosity in air sacks on dissection.
# [17] = test system: Salmonella typhimurium (S.typhi) 13311; assay: In vitro sensitivity test (agar dilution method); type: cell-based; settings: 37°C, 20 to 24 hours
# [18] = test system: Pasteurella piscicida (P.pis) No. 2; assay: In vitro sensitivity test; type: cell-based; settings: 25°C, 40 to 48 hours
# Outline: as §1
# Acute toxicity (LD50) = settings: in vivo, read-out: LD₅₀
# Text: The compounds (I) according to the invention show a higher antimicrobial activity than the control or commercially available antimicrobial agents with a smaller dosage. […]
compound,measurement,setting,value
"CCN1CCN(c2cc3c(cc2F)c(=O)c(C(=O)O)cn3C2CC2)CC1 [ERFX, Enrofuroxasin®, reference compound]",In vitro Sensitivity Test MG S6,[1],0.1 µg/mL
same,In vitro Sensitivity Test MG T-7-T,[2],0.1 µg/mL
same,In vitro Sensitivity Test Mh ST-11,[3],0.05 µg/mL
same,In vitro Sensitivity Test MS 1853,[4],0.1 µg/mL
same,In vitro Sensitivity Test MS F10-2as,[5],3.13 µg/ml
same,In vitro Sensitivity Test B.br ABU-1,[6],0.1 µg/mL
same,In vitro Sensitivity Test E.coli E-17,[7],0.1 µg/ml
same,In vitro Sensitivity Test E.coli JC-2,[8],0.1 µg/mL
same,In vitro Sensitivity Test H.pg 221,[9],0.1 µg/mL
same,In vitro Sensitivity Test H.pg S-1,[10],0.2 µg/mL
same,In vitro Sensitivity Test H.pp M-1,[11],0.2 µg/mL
same,In vitro Sensitivity Test S.au 209P,[12],0.1 µg/mL
same,Number of infected fowl/Number of fowl tested,"[13]; oral 1.56 mg/kg, 9-days chicken",2/5
same,Number of fowl having air sack lesions,"[13]; oral 3.13 mg/kg, 9-days chicken, 2.2 x 10³ CFU/fowl",2
same,Number of infected fowl/Number of fowl tested,"[13]; oral 3.13 mg/kg, 9-days chicken",0/5
same,Number of fowl having air sack lesions,"[13]; oral 6.25 mg/kg, 9-days chicken, 1.7 x 10³ CFU/fowl",1
same,Number of fowl having air sack lesions,"[13]; oral 6.25 mg/kg, 9-days chicken, 2.2 x 10³ CFU/fowl",0
same,Number of infected fowl/Number of fowl tested,"[13]; oral 6.25 mg/kg, 9-days chicken",0/5
same,Number of fowl having air sack lesions,"[13]; oral 6.25 mg/kg, 10-days chicken, 1.2 x 10³ CFU/fowl",2
same,Number of fowl having air sack lesions,"[13]; oral 6.25 mg/kg, 10-days chicken, 3.0 x 10³ CFU/fowl",2
same,Number of fowl having air sack lesions,"[13]; oral 12.5 mg/kg, 9-days chicken, 1.7 x 10³ CFU/fowl",0
same,Number of fowl having air sack lesions,"[13]; oral 12.5 mg/kg, 9-days chicken, 2.2 x 10³ CFU/fowl",0
same,Number of fowl having air sack lesions,"[13]; oral 12.5 mg/kg, 10-days chicken, 1.2 x 10³ CFU/fowl",0
same,Number of fowl having air sack lesions,"[13]; oral 12.5 mg/kg, 10-days chicken, 3.0 x 10³ CFU/fowl",0
same,Number of fowl having air sack lesions,"[13]; oral 25.0 mg/kg, 9-days chicken, 1.7 x 10³ CFU/fowl",0
same,Number of fowl having air sack lesions,"[13]; oral 25.0 mg/kg, 10-days chicken, 1.2 x 10³ CFU/fowl",0
same,Number of fowl having air sack lesions,"[13]; oral 25.0 mg/kg, 10-days chicken, 3.0 x 10³ CFU/fowl",0
same,complete inihibition of the lesions in air sac at a concentration of,"[13]; oral administration, MG-infected chicken",12.5 mg/kg
same,Number of fowl having air sack lesions,TS-resistant MG [14]; bait 15.6 ppm/Day,1
same,Number of fowl having air sack lesions,TS-resistant MG [14]; bait 31.3 ppm/Day,0
same,Number of infected fowl/Number of fowl tested,TS-resistant MG [14]; bait 31.3 ppm/Day,1/7
same,Number of fowl having air sack lesions,TS-resistant MG [14]; bait 62.5 ppm/Day,0
same,Number of infected fowl/Number of fowl tested,TS-resistant MG [14]; bait 62.5 ppm/Day,0/7
same,Number of infected fowl/Number of fowl tested,TS-resistant MG [14]; bait 125 ppm/Day,0/7
same,Effective concentration to prevent pituita,H.pg strain (i.e. 221),7.8 ppm/day
same,Number of fowl having air sack lesions,TS-resistant MG [15]; Dose 1.56 mg/kg,3
same,Number of fowl having air sack lesions,TS-resistant MG [15]; Dose 3.13 mg/kg,2
same,Number of pig died or developed dyspnea/Number of pig tested,[16]; Dose 5 mg/kg,0/4
same,Number of pig having nodi/Number of pig tested,[16]; Dose 5 mg/kg,0/4
same,Number of pig died or developed dyspnea/Number of pig tested,[16]; Dose 10 mg/kg,0/4
same,Number of pig having nodi/Number of pig tested,[16]; Dose 10 mg/kg,0/4
CNCC12CCCC1CN(c1c(F)cc3c(=O)c(C(=O)O)cn(C4CC4)c3c1F)C2.Cl (stereo not shown) [I-5],In vitro Sensitivity Test MS F10-2as,[5],0.2 µg/ml
same,In vitro Sensitivity Test S.typhi 13311,[17],0.2 µg/mL
same,In vitro Sensitivity Test P.pis No. 2,[18],1.56 µg/mL
same,antimicrobial activity compared with ERFX,"[13]; in vivo, po",two times more effective than ERFX
same,complete inihibition of the lesions in air sac at a concentration of,"[13]; in vivo, po",about 3.13 mg/kg
same,Infectious index Left air sack +,"[13]; in vivo, po, 1.56 mg/kg",0
same,Infectious index Left air sack ++,"[13]; in vivo, po, 1.56 mg/kg",0
same,Infectious index Left air sack +++,"[13]; in vivo, po, 1.56 mg/kg",0
same,Infectious index Left air sack -,"[13]; in vivo, po, 1.56 mg/kg",4
same,Infectious index Right air sack +,"[13]; in vivo, po, 1.56 mg/kg",0
same,Infectious index Right air sack ++,"[13]; in vivo, po, 1.56 mg/kg",1
same,Infectious index Right air sack +++,"[13]; in vivo, po, 1.56 mg/kg",1
same,Infectious index Right air sack -,"[13]; in vivo, po, 1.56 mg/kg",2
same,Number of fowl having air sack lesions,"[13]; in vivo, po, 1.56 mg/kg",2
same,Infectious index Left air sack +,"[13]; in vivo, po, 3.13 mg/kg",0
same,Infectious index Left air sack ++,"[13]; in vivo, po, 3.13 mg/kg",0
same,Infectious index Left air sack +++,"[13]; in vivo, po, 3.13 mg/kg",0
same,Infectious index Left air sack -,"[13]; in vivo, po, 3.13 mg/kg",5
same,Infectious index Right air sack +,"[13]; in vivo, po, 3.13 mg/kg",0
same,Infectious index Right air sack ++,"[13]; in vivo, po, 3.13 mg/kg",0
same,Infectious index Right air sack +++,"[13]; in vivo, po, 3.13 mg/kg",0
same,Infectious index Right air sack -,"[13]; in vivo, po, 3.13 mg/kg",5
same,Number of fowl having air sack lesions,"[13]; in vivo, po, 3.13 mg/kg",0
same,Infectious index Left air sack +,"[13]; in vivo, po, 6.25 mg/kg",0
same,Infectious index Left air sack ++,"[13]; in vivo, po, 6.25 mg/kg",0
same,Infectious index Left air sack +++,"[13]; in vivo, po, 6.25 mg/kg",0
same,Infectious index Left air sack -,"[13]; in vivo, po, 6.25 mg/kg",5
same,Infectious index Right air sack +,"[13]; in vivo, po, 6.25 mg/kg",0
same,Infectious index Right air sack ++,"[13]; in vivo, po, 6.25 mg/kg",0
same,Infectious index Right air sack +++,"[13]; in vivo, po, 6.25 mg/kg",0
same,Infectious index Right air sack -,"[13]; in vivo, po, 6.25 mg/kg",5
same,Number of fowl having air sack lesions,"[13]; in vivo, po, 6.25 mg/kg",0
same,Infectious index Left air sack +,"[13]; in vivo, po, 25 mg/kg",0
same,Infectious index Left air sack ++,"[13]; in vivo, po, 25 mg/kg",0
same,Infectious index Left air sack +++,"[13]; in vivo, po, 25 mg/kg",0
same,Infectious index Left air sack -,"[13]; in vivo, po, 25 mg/kg",5
same,Infectious index Right air sack +,"[13]; in vivo, po, 25 mg/kg",0
same,Infectious index Right air sack ++,"[13]; in vivo, po, 25 mg/kg",0
same,Infectious index Right air sack +++,"[13]; in vivo, po, 25 mg/kg",0
same,Infectious index Right air sack -,"[13]; in vivo, po, 25 mg/kg",5
same,Number of fowl having air sack lesions,"[13]; in vivo, po, 25 mg/kg",0
same,Effective concentration to prevent pituita,H.pg strain (i.e. 221),1.56 ppm/day
same,Number of pig died or developed dyspnea/Number of pig tested,[16]; Dose 10 mg/kg,0/4
same,Number of pig having nodi/Number of pig tested,[16]; Dose 10 mg/kg,0/4
same,LD50,"Acute toxicity (LD50); ip, Mouse (B6C3F₁, male), i.p.",200 mg/kg
same,LD50,"Acute toxicity (LD50); po, Chicken ( -days), p.o.",500 mg/kg
same,LD50,"Acute toxicity (LD50); po, Mouse (B6C3F₁, male), p.o.",2000 mg/kg
